Experimental data published in US6960589B2, “Benzimidazoles that are useful in treating sexual dysfunction” (Abbott Laboratories, priority 2001, dated 2005).
Values joined by “and” are separate entries in the source; they are usually repeats but may differ in a detail not shown here. Identical values can stand only once.

What was measured:
Wistar rats = assay: Rat penile erection model; format: in vivo; conditions: for Induction of penile erections in rats (result in words): subcutaneous administration, doses of 0.01 μmol/kg to 0.10 μmol/kg
Protocol: Wistar rats were used as a primary animal model to study penile erection in vivo. All experiments were carried out between 9:00 AM and 3:00 PM in a diffusely illuminated testing room with a red light. Animals were weighed and allowed to adapt to the testing room for 60 minutes before the beginning of experiments. Rats were placed individually in a transparent cage (20×30×30 cm) after drug injection.
(L)-Ascorbic acid in saline (1 mg/mL) was used as vehicle. Twelve animals were used per dose.

Male Fitch ferrets = tested on: Male Fitch ferrets; set-up: species or system ferret; conditions: in vivo, sc
Protocol: Male Fitch ferrets (body weights 1.0-1.5 kg) were obtained from Marshall Farms. Ferrets were fasted overnight before experimentation. Apomorphine or a compound of the present invention was administrated subcutaneously; animals were placed individually in observation cages and the drug-induced emesis and signs of nausea were determined (by direct observation) for a period of 90 minutes following drug injection. Nausea was characterized by behaviors such as licking, gagging, backing, head burying, and intense abdominal grooming. Emesis was usually preceded by these behaviors and was characterized by rhythmic abdominal contractions which were associated with vomiting or retching movement.
Sterile saline was used as vehicle. Six animals were used per dose.

| SMILES | melting point [°C] | further results |
| --- | --- | --- |
| O=C(N1CCCC1)n1c(CN2CCN(c3ccccn3)CC2)nc2ccccc21 [Example 9, 2-[(4-pyridin-2-ylpiperazin-1-yl)methyl]-1-(pyrrolidin-1-ylcarbonyl)-1H-benzimidazole] | 120 to 121 | – |
| Oc1ccc(N2CCN(Cc3nc4ccccc4[nH]3)CC2)cc1 [Example 17, 4-[4-(1H-benzimidazol-2-ylmethyl)piperazin-1-yl]phenol] | 206 to 209 | – |
| c1ccc2[nH]c(CN3CCN(c4nccs4)CC3)nc2c1 [Example 7, 2-{[4-(1,3-thiazol-2-yl)piperazin-1-yl]methyl}-1H-benzimidazole] | 203 to 205 | – |
| C[C@@H]1CN(c2ccccn2)CCN1Cc1nc2ccccc2[nH]1 [Example 26, 2-{[(2R)-2-methyl-4-pyridin-2-ylpiperazin-1-yl]methyl}-1H-benzimidazole] | 151 to 153 | – |
| Oc1ccc(N2CCN(Cc3nc4ccccc4[nH]3)CC2)nc1 [6-[4-(1H-benzimidazol-2-ylmethyl)piperazin-1-yl]pyridin-3-ol] | 144 to 145 | Induction of penile erections in rats (result in words) (Wistar rats): induced statistically significant penile erections |
| c1ccc(N2CCN(Cc3nc4ccccc4[nH]3)CC2)nc1 [2-[(4-pyridin-2-ylpiperazin-1-yl)methyl]-1H-benzimidazole] | – | Induction of emesis in ferrets (result in words) (Male Fitch ferrets): did not induce emesis; Induction of penile erections in rats (result in words) (Wistar rats): induced statistically significant penile erections |
| C[C@H]1CN(c2ccccn2)CCN1Cc1nc2ccccc2[nH]1 [Example 25, 2-{[(2S)-2-methyl-4-pyridin-2-ylpiperazin-1-yl]methyl}-1H-benzimidazole] | 149 to 151 | – |
| CCOc1ccccc1N1CCN(Cc2nc3ccccc3[nH]2)CC1 [Example 19, 2-{[4-(2-ethoxyphenyl)piperazin-1-yl]methyl}-1H-benzimidazole] | 95 to 100 | – |
| Fc1ccccc1N1CCN(Cc2nc3ccccc3[nH]2)CC1 [Example 14, 2-{[4-(2-fluorophenyl)piperazin-1-yl]methyl}-1H-benzimidazole] | 262 to 264 | – |
| c1cnc(N2CCN(Cc3nc4ccccc4[nH]3)CC2)nc1 [Example 2, 2-[(4-pyrimidin-2-ylpiperazin-1-yl)methyl]-1H-benzimidazole] | 198 to 200 | – |
| CN(C)C(=O)n1c(CN2CCN(c3ccccn3)CC2)nc2ccccc21 [Example 10, N,N-dimethyl-2-[(4-pyridin-2-ylpiperazin-1-yl)methyl]-1H-benzimidazole-1-carboxamide] | 174 to 176 | – |
| Fc1cccnc1N1CCN(Cc2nc3ccccc3[nH]2)CC1 [Example 28, 2-{[4-(3-fluoropyridin-2-yl)piperazin-1-yl]methyl}-1H-benzimidazole] | 210 to 212 | – |
| CN1CCc2cccc3c2[C@H]1Cc1ccc(O)c(O)c1-3 [Apomorphine, (6aR) 5,6,6a,7-tetrahydro-6-methyl-4H-dibenzo[de,g]quinoline-10,11-diol, reference compound] | – | Incidence (%) of penile erection (animals exhibiting 1 or more erections) (Wistar rats; rats, dose 0.1 μmol/kg, observed 60 minutes after dosing): 83% and 93% |
| N#Cc1cccnc1N1CCN(Cc2nc3ccccc3[nH]2)CC1 [Example 4, 2-[4-(1H-benzimidazol-2-ylmethyl)piperazin-1-yl]nicotinonitrile] | 208 to 210 | – |
| CSc1ccccc1N1CCN(Cc2nc3ccccc3[nH]2)CC1 [Example 18, 2-({4-[2-(methylthio)phenyl]piperazin-1-yl}methyl)-1H-benzimidazole] | 214 to 216 | – |
| N#Cc1ccccc1N1CCN(Cc2nc3ccccc3[nH]2)CC1 [Example 12, 2-[4-(1H-benzimidazol-2-ylmethyl)piperazin-1-yl]benzonitrile] | 236 to 237 | – |
| CC1CN(c2ccccn2)CCN1Cc1nc2ccccc2[nH]1 (centres unmarked) [Example 24, 2-[(2-methyl-4-pyridin-2-ylpiperazin-1-yl)methyl]-1H-benzimidazole] | 207 to 209 | – |
| Oc1ccccc1N1CCN(Cc2nc3ccccc3[nH]2)CC1 [Example 20, 2-[4-(1H-benzimidazol-2-ylmethyl)piperazin-1-yl]phenol] | 208 to 216 | – |
